As a reminder, the IC50 is the concentration needed to halve the response being measured. Lower therefore signals greater potency in that assay.

Experimental findings from BindingDB's records for doi:10.1016/s0960-894x(01)00648-5 (Merck Research Laboratories, 2001) are described below.

Where only a bound is given, the exact number is not on record here.

The target of test [1] is T1, Genome polyprotein (Human rhinovirus sp., UniProt Q4U254).
T1 sequence (Q4U254 whole entry): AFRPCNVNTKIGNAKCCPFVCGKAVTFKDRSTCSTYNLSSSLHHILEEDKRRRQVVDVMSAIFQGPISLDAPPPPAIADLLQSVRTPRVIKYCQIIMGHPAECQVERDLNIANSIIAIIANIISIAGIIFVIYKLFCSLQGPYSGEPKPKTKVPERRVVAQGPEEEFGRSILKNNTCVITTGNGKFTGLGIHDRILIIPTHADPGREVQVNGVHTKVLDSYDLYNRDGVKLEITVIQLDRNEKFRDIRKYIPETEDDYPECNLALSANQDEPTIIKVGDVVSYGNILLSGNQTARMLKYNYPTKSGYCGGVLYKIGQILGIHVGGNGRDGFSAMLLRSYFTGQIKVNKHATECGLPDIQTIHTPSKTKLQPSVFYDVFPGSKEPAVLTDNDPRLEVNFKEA
Nature of the test: ChEBML_160894. An excerpt:
(§1) Inhibitory activity against HRV 3Cpro using HPLC assay

The target of test [2] is T2, Genome polyprotein (Human rhinovirus sp., UniProt Q04107).
T2 sequence (Q04107 whole entry): T1 sequence (Q4U254 whole entry)
As to the kind of experiment: ChEBML_160894.
Description: as §1

Regarding `O=C1C(=O)c2ccccc2-c2ccccc21`, the IC50 on Genome polyprotein [1] came out at 1.4 µM.

At Genome polyprotein [1], `COC1=CC(=O)c2ccccc2C1=O` gave an IC50 of 26 µM.

As to `O=C1CC(=O)c2ccccc2C1=O`, the IC50 at Genome polyprotein [1] is more than 150 µM.

At Genome polyprotein [2], `O=C1C=Cc2ccccc2C1=O` [1,2-dihydronaphthalene-1,2-dione] gave an IC50 of 8.2 µM.

On Genome polyprotein [2], `Cc1cc(O)c2c(c1)C(=O)c1cc(O)cc(O)c1C2=O` [1,3,8-trihydroxy-6-methylanthra-9,10-quinone] showed an IC50 of more than 150 µM.

On to `O=C1C=CC(=O)c2ccccc21` [1,4-dihydronaphthalene-1,4-dione], for which the midpoint of inhibition against Genome polyprotein [1], the IC50, lay at 21 µM.

Turning to `COC1=CC(=O)c2ccc(C)cc2C1=O` [2-Methoxy-7-methyl-[1,4]naphthoquinone], it took 10.5 µM to reach half-maximal inhibition at Genome polyprotein [1] (IC50).

On to `COC1=CC(=O)c2c(O)cc(C)cc2C1=O` [2-methoxy-7-methyljuglone], for which the IC50 on Genome polyprotein [1] turned out to be 2.4 µM.

With `Cc1cc(O)c2c(c1)C(=O)C=CC2=O` [5-Hydroxy-7-methyl-[1,4]naphthoquinone], the IC50 against Genome polyprotein [1] turned out to be 6.4 µM.

Take `COC1=CC(=O)c2c(cc(C)c(C(C)=O)c2O)C1=O` [6-Acetyl-5-hydroxy-2-methoxy-7-methyl-[1,4]naphthoquinone]: the IC50 against Genome polyprotein [1] came to 4.6 µM.

At Genome polyprotein [1], `CC(=O)c1c(C)cc2c(c1O)C(=O)C(=O)CC2=O` [7-Acetyl-2,8-dihydroxy-6-methyl-[1,4]naphthoquinone] registered an IC50 of more than 150 µM.

On Genome polyprotein [1], `COC1=CC(=O)c2cc(C)c(C(C)=O)c(OC)c2C1=O` [7-Acetyl-2,8-dimethoxy-6-methyl-[1,4]naphthoquinone] returned an IC50 of 124 µM.

At Genome polyprotein [2], `CC1Cc2cc(O)c3c(c2C(=O)O1)C(=O)C=C(C1=CC(=O)c2c(c(O)cc4c2C(=O)OC(C)C4)C1=O)C3=O` (stereo not drawn) [9,9'-Dihydroxy-2,2'-dimethyl-1,2,1',2'-tetrahydro-[7,7']bi[3-oxa-phenanthrenyl]-4,5,8,4',5',8'-hexaone] registered an IC50 of 6 µM.

On to `C[C@@H]1CC2=C(C(=O)c3c(O)cc(O)cc3C2=O)[C@@H](O)O1` [(1S,3R)-1,7,9-Trihydroxy-3-methyl-3,4-dihydro-1H-benzo[g]isochromene-5,10-dione], for which the IC50 on Genome polyprotein [1] turned out to be 47 µM.

For the compound `COC1=CC(=O)c2c(cc(C)c(C(C)=O)c2OC(C)=O)C1=O` [Acetic acid 2-acetyl-6-methoxy-3-methyl-5,8-dioxo-5,8-dihydro-naphthalen-1-yl ester], at Genome polyprotein [1], the IC50 came out at 8.1 µM. Compared with the last compound, the IC50 is about 5.8-fold lower.

At Genome polyprotein [1], `COC1=CC(=O)c2c(OC(C)=O)cc(C)cc2C1=O` [Acetic acid 6-methoxy-3-methyl-5,8-dioxo-5,8-dihydro-naphthalen-1-yl ester] showed an IC50 of 40 µM.

In turn, `O=C1C=CC(=O)c2c1ccc1c2ccc2ccccc21` [Chrysene-1,4-dione] had an IC50 against Genome polyprotein [1] of 46.5 µM. The IC50 values of the last two compounds are within 1.5-fold of each other.

For the compound `COc1cc(O)c2c(c1)C(=O)c1cc(C)cc(O)c1C2=O` [physcion], the IC50 on Genome polyprotein [1] is more than 150 µM.
